Patent US5681832A, “Aroylaniline compounds, pharmaceutical compositions, and methods of using same to inhibit viral activity” (priority 1995, dated 1997)
Where a name gives a salt, the structure may show the parent alone. Read-outs that look alike come from different tables or passages of the source.

Key:
[1] = test system: T4 lymphocytes (CEM cell line); assay: toxicity control: survival of uninfected T4 lymphocytes (CEM cell line) treated with compound (growth inhibition); assay type: cell-based; details: Homo sapiens, CCRF-CEM; for IC50: 144 h, read-out: IC50 (Molar)
Procedure: (§1) 1. Candidate agent is dissolved in dimethyl sulfoxide (unless otherwise instructed) and then diluted 1:100 in cell culture medium before preparing serial half-log10 dilutions which are then to 96-well microfilter plates. T4 lymphocytes (CEM cell line) are added, and after a brief interval HIV-1 is added to all wells, resulting in a 1:200 final dilution […]. Uninfected cells with the compound serve as a toxicity control, and infected and uninfected cells without the compound serve as basic controls.
(§2) 2. Cultures are incubated at 37° C. in a 5% carbon dioxide atmosphere for 6 days.
(§3) 3. The tetrazolium salt, XTT, is added to all wells, and cultures are incubated to allow formazan color development by viable cells.
(§4) 4. Individual wells are analyzed spectrophotometrically to quantitate formazan production, and in addition are viewed microscopically for detection of viable cells and confirmation of protective activity.
(§5) 5. Drug-tested virus-infected cells are compared with drug-treated noninfected cells and with other appropriate controls (untreated infected and untreated noninfected cells, drug-containing wells without cells, etc.) on the same plate.
(§6) FIGS. 1 to 6 display a plot of the log10 of the concentrations (as μg/mL or molar as shown) of the aroylaniline compounds, Compounds 1, 3, 13, 14, 29 and 32, against the measured test values expressed as a percentage of the uninfected, untreated control values. The solid line depicts the percentage of surviving HIV-infected cells treated with sample (at the indicated concentration) relative to uninfected, untreated controls. Thus, the solid line expresses the anti-HIV activity of the compound. The dashed line depicts the percentage of surviving uninfected cells treated with the compound relative to the same uninfected, untreated controls. Thus, the dashed line expresses the growth inhibitory properties of the compound. The viral cytopathic effect […] is indicated by a dotted reference line. […] Survival values of this parameter less than 50% are considered acceptable in the current protocol. Approximate values for 50% effective concentration (EC50) have been calculated for each test and are set forth for these Compounds in Tables 2-7, respectively.

[2] = test system: HIV-1; assay: in vitro anti-HIV screening (NCI XTT soluble-formazan assay, protection of HIV-1-infected CEM T4 lymphocytes from cytolysis); assay type: cell-based; details: for EC50: 144 h, HIV-1-infected CEM cells, 6 days, approximate values, read-out: EC50 (Molar), 50% effective concentration; for inhibition at 200 µM / activity at 200 µM: 2.00 × 10^-4 Molar; for inhibition at 20 µM / activity at 20 µM: 2.00 × 10^-5 Molar; for inhibition at 2 µM / activity at 2 µM: 2.00 × 10^-6 Molar; for inhibition at 0.2 µM / activity at 0.2 µM: 2.00 × 10^-7 Molar; for inhibition at 6.33 µM / activity at 6.33 µM: 6.33 × 10^-6 Molar; for inhibition at 0.634 µM / activity at 0.634 µM: 6.34 × 10^-7 Molar; for inhibition at 0.0635 µM / activity at 0.0635 µM: 6.35 × 10^-8 Molar; for TI50 (IC/EC), therapeutic index: IC50/EC50; for Conclusion: NCI anti-HIV screen
Source text: The aroylaniline compounds of the present invention were subjected to in vitro screening to determine their anti-HIV activity.
The National Cancer Institute's procedure for testing for agents active against Human Immunodeficiency Virus (HIV) (Weislow, O. W. et al., "New soluble-formazan assay for HIV-1 cytopathic effects: application to high-flux screening of synthetic and natural products for AIDS-antiviral activity," J. Natl Cancer Inst., 81, 577-586 (1989)) is designed to detect agents acting at any stage of the virus reproductive cycle. The assay includes the killing of T4 lymphocytes by HIV. Pursuant to the test, small amounts of HIV are added to cells, and a complete cycle of virus reproduction is necessary to obtain the required cell killing. Agents that interact with virions, cells, or virus gene-products to interfere with viral activities will protect cells from cytolysis. The system is thus designed to detect anti-HIV activity. However, compounds that are chemically labile or are rapidly metabolized in the culture conditions may not show activity in this screen. All tests are compared with at least one positive (e.g., AZT-treated) control done at the same time under identical conditions.
as §1, §2, §3, §4, §5
6. Data are reviewed in comparison with other tests done at the same time and a determination about activity is made.
The aroylaniline compounds of the present invention were tested for anti-HIV activity according to the above procedure. FIGS. 1-6 represent test results of the aroylaniline compounds of Compounds 1, 3, 13, 14, 29 and 32.
as §6

[3] = read-out: Percent of Control, Uninfected
[4] = Human immunodeficiency virus 1, CCRF-CEM
[5] = Human immunodeficiency virus 1, CCRF-CEM, read-out: Percent of Protection
[6] = Human immunodeficiency virus 1, CEM-T4, read-out: Percent of Control, Infected

O=C(O)CCSCc1cc(C(=O)Nc2ccc(C=Cc3ccc(NC(=O)c4cc(CSCCC(=O)O)c5cccnc5c4O)cc3S(=O)(=O)O)c(S(=O)(=O)O)c2)c(O)c2ncccc12 [Compound 13, 4,4'-di[5-(2-carboxyethylthiomethyl)-8-hydroxy-7-quinolinecarboxyamido]stilbene-2,2'-disulfonic acid tetrasodium salt]
IC50 [1]: 29 µM
activity at 0.0635 µM [1, 3]: 86.4%
activity at 0.2 µM [1, 3]: 90.5%
activity at 0.634 µM [1, 3]: 92.2%
activity at 2 µM [1, 3]: 111%
activity at 6.33 µM [1, 3]: 118%
activity at 20 µM [1, 3]: 73.7%
activity at 63.2 µM [1, 3]: 0.37%
activity at 200 µM [1, 3]: 2.05%
EC50 [2, 4]: 1.05 µM
inhibition at 63.2 µM [2, 5]: 29.4%
inhibition at 200 µM [2, 5]: -28%
inhibition at 20 µM [2, 5]: 67.5%
inhibition at 2 µM [2, 5]: 84.4%
inhibition at 0.2 µM [2, 5]: -17.9%
inhibition at 6.33 µM [2, 5]: 134%
inhibition at 0.634 µM [2, 5]: 24.6%
inhibition at 0.0635 µM [2, 5]: 15.6%
activity at 63.2 µM [2, 6]: 1.63%
activity at 200 µM [2, 6]: 2.7%
activity at 20 µM [2, 6]: 75.3%
activity at 2 µM [2, 6]: 88.1%
activity at 0.2 µM [2, 6]: 10.4%
activity at 6.33 µM [2, 6]: 126%
activity at 0.634 µM [2, 6]: 42.7%
activity at 0.0635 µM [2, 6]: 35.8%
TI50 (IC/EC), therapeutic index [2]: 2.78 × 10^+1
Conclusion [2]: CONFIRMED ACTIVE

O=C([O-])c1c(O)ccc(O)c1C(=O)Nc1ccc(C=Cc2ccc(NC(=O)c3c(O)ccc(O)c3C(=O)[O-])cc2S(=O)(=O)O)c(S(=O)(=O)O)c1.[Na+].[Na+] [Compound 29, 4,4'-di(2-carboxy-3,6-dihydroxybenzamido)stilbene-2,2'-disulfonic acid disodium salt]
IC50 [1]: > 220 µM
activity at 0.0635 µM [1, 3]: 93.2%
activity at 0.2 µM [1, 3]: 93.8%
activity at 0.634 µM [1, 3]: 92.8%
activity at 2 µM [1, 3]: 95.2%
activity at 6.33 µM [1, 3]: 96.7%
activity at 20 µM [1, 3]: 99%
activity at 63.2 µM [1, 3]: 100%
activity at 200 µM [1, 3]: 93%
EC50 [2, 4]: 12.5 µM
inhibition at 200 µM [2, 5]: 79.7%
inhibition at 20 µM [2, 5]: 83.3%
inhibition at 2 µM [2, 5]: 0.58%
inhibition at 0.2 µM [2, 5]: -1.09%
inhibition at 63.2 µM ([2]; Human immunodeficiency virus 1, CCRF-CEM, 6.32 × 10^-5 Molar, read-out: Percent of Protection): 92.7%
inhibition at 6.33 µM [2, 5]: 2.47%
inhibition at 0.634 µM [2, 5]: -0.52%
inhibition at 0.0635 µM [2, 5]: -3.31%
activity at 200 µM [2, 6]: 81.1%
activity at 20 µM [2, 6]: 84.5%
activity at 2 µM [2, 6]: 7.54%
activity at 0.2 µM [2, 6]: 5.99%
activity at 63.2 µM ([2]; Human immunodeficiency virus 1, CEM-T4, 6.32 × 10^-5 Molar, read-out: Percent of Control, Infected): 93.2%
activity at 6.33 µM [2, 6]: 9.3%
activity at 0.634 µM [2, 6]: 6.52%
activity at 0.0635 µM [2, 6]: 3.92%
TI50 (IC/EC), therapeutic index [2]: > 1.61 × 10^+1
Conclusion [2]: CONFIRMED ACTIVE

O=C(Nc1ccc(/C=C/c2ccc(NC(=O)c3cc(S(=O)(=O)O)c4cccnc4c3O)cc2S(=O)(=O)O)c(S(=O)(=O)O)c1)Nc1ccc(/C=C/c2ccc(NC(=O)c3cc(S(=O)(=O)O)c4cccnc4c3O)cc2S(=O)(=O)O)c(S(=O)(=O)O)c1 [Compound 3, 1,3-di[2,2'-disulfo-4(8-hydroxy-5-sulfo-7-quinoline)]stilbene urea, hexasodium salt]
IC50 ([1]; uninfected CEM cells, 6 days): > 50 µM
activity at 15.8 µM ([1]; 1.58 × 10^-5 Molar, read-out: Percent of Control, Uninfected): 103%
activity at 1.58 µM ([1]; 1.58 × 10^-6 Molar, read-out: Percent of Control, Uninfected): 95.7%
activity at 0.158 µM ([1]; 1.58 × 10^-7 Molar, read-out: Percent of Control, Uninfected): 94.4%
activity at 0.0158 µM ([1]; 1.58 × 10^-8 Molar, read-out: Percent of Control, Uninfected): 111%
activity at 50 µM ([1]; 5.00 × 10^-5 Molar, read-out: Percent of Control, Uninfected): 98%
activity at 5 µM ([1]; 5.00 × 10^-6 Molar, read-out: Percent of Control, Uninfected): 97%
activity at 0.501 µM ([1]; 5.01 × 10^-7 Molar, read-out: Percent of Control, Uninfected): 97.7%
activity at 0.0502 µM ([1]; 5.02 × 10^-8 Molar, read-out: Percent of Control, Uninfected): 95.8%
EC50 [2, 4]: 4.06 µM
inhibition at 15.8 µM ([2]; Human immunodeficiency virus 1, CCRF-CEM, 1.58 × 10^-5 Molar, read-out: Percent of Protection): 92.9%
inhibition at 1.58 µM ([2]; Human immunodeficiency virus 1, CCRF-CEM, 1.58 × 10^-6 Molar, read-out: Percent of Protection): 0.19%
inhibition at 0.158 µM ([2]; Human immunodeficiency virus 1, CCRF-CEM, 1.58 × 10^-7 Molar, read-out: Percent of Protection): -1.29%
inhibition at 0.0158 µM ([2]; Human immunodeficiency virus 1, CCRF-CEM, 1.58 × 10^-8 Molar, read-out: Percent of Protection): 0.19%
inhibition at 50 µM ([2]; Human immunodeficiency virus 1, CCRF-CEM, 5.00 × 10^-5 Molar, read-out: Percent of Protection): 90.8%
inhibition at 5 µM ([2]; Human immunodeficiency virus 1, CCRF-CEM, 5.00 × 10^-6 Molar, read-out: Percent of Protection): 61.1%
inhibition at 0.501 µM ([2]; Human immunodeficiency virus 1, CCRF-CEM, 5.01 × 10^-7 Molar, read-out: Percent of Protection): 2%
inhibition at 0.0502 µM ([2]; Human immunodeficiency virus 1, CCRF-CEM, 5.02 × 10^-8 Molar, read-out: Percent of Protection): 0.51%
activity at 15.8 µM ([2]; Human immunodeficiency virus 1, CEM-T4, 1.58 × 10^-5 Molar, read-out: Percent of Control, Infected): 93.2%
activity at 1.58 µM ([2]; Human immunodeficiency virus 1, CEM-T4, 1.58 × 10^-6 Molar, read-out: Percent of Control, Infected): 4.18%
activity at 0.158 µM ([2]; Human immunodeficiency virus 1, CEM-T4, 1.58 × 10^-7 Molar, read-out: Percent of Control, Infected): 2.76%
activity at 0.0158 µM ([2]; Human immunodeficiency virus 1, CEM-T4, 1.58 × 10^-8 Molar, read-out: Percent of Control, Infected): 4.18%
activity at 50 µM ([2]; Human immunodeficiency virus 1, CEM-T4, 5.00 × 10^-5 Molar, read-out: Percent of Control, Infected): 91.1%
activity at 5 µM ([2]; Human immunodeficiency virus 1, CEM-T4, 5.00 × 10^-6 Molar, read-out: Percent of Control, Infected): 62.7%
activity at 0.501 µM ([2]; Human immunodeficiency virus 1, CEM-T4, 5.01 × 10^-7 Molar, read-out: Percent of Control, Infected): 5.92%
activity at 0.0502 µM ([2]; Human immunodeficiency virus 1, CEM-T4, 5.02 × 10^-8 Molar, read-out: Percent of Control, Infected): 4.49%
TI50 (IC/EC), therapeutic index [2]: > 1.23 × 10^+1
Conclusion [2]: CONFIRMED ACTIVE
